Results published in US12643867B2, “Compositions and uses thereof” (University of Virginia Patent Foundation, priority 2017, dated 2026).

Molecular target: T1, DGKQ (Diacylglycerol kinase theta) (Homo sapiens, UniProt P52824)
T1 construct: expressed in transfected cells; host or cells: SILAC HEK293T
T1 sequence (P52824 1-942): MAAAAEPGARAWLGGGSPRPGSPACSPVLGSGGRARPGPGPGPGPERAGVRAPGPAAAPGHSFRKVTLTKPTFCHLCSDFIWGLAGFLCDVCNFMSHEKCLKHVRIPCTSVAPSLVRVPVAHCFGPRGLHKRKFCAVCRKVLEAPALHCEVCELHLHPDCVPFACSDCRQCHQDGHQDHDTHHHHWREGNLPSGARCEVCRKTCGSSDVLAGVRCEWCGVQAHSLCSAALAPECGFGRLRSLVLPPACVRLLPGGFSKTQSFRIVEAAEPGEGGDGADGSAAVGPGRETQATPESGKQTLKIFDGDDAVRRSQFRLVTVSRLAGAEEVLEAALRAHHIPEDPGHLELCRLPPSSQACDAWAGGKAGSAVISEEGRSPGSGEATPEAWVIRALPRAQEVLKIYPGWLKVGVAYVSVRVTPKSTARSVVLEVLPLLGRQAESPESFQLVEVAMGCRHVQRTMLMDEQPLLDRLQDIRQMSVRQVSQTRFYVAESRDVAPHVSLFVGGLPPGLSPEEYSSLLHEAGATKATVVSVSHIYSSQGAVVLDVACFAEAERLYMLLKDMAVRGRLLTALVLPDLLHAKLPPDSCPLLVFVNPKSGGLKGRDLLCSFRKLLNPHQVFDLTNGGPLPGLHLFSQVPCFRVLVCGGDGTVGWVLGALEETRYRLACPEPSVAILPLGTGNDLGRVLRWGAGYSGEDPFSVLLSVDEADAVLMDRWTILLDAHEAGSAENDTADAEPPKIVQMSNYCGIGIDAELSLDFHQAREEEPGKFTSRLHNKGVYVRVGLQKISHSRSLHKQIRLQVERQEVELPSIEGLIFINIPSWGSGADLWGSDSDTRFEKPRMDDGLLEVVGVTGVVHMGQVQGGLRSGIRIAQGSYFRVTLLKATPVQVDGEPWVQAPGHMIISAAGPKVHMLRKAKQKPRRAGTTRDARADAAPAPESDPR
Assay: SILAC LC-MS ATP acyl phosphate probe competition, recombinant DGK-HEK293T lysates
Assay type: binding
Settings: ATP 1 mM, Ketanserin, Ritanserin 100 μM, RF001 1 mM; for SILAC ratio, DGKQ C1 probe-modified peptide: site C1 (K202); for SILAC ratio, DGKQ DAGKa probe-modified peptide: site DAGKa (K768); for SILAC ratio, DGKQ DAGKc probe-modified peptide: site DAGKc (K596)
From the text: Recombinant DGK proteins were produced by transient transfection of HEK293T cells with recombinant DNA. pDONR223-DGKK was a gift from William Hahn & David Root (Addgene plasmid #23487). pCSF107mT-GATEWAY-3′-FLAG was a gift from Todd Stukenberg (Addgene plasmid #67619). pCSF107mT-DGKK-FLAG construct was generated by recombination of the Addgene plasmids using the Gateway cloning system (Invitrogen). All other vectors were gifted to Dr. Kevin Lynch (University of Virginia, School of Medicine) by Dr. Kaoru Goto (Yamagata University, School of Medicine) and Dr. Fumio Sakane (Chiba University) and were kindly shared with us: pcDNA3-FLAG-DGKA (rat), pCMV-Tag2B-FLAG-DGKQ (human), pcDNA3-DGKE-3×Flag (human), and pCMV-SPORT6-HA-DGKZ (human). HEK293T cells were plated at a concentration of 400,000 cells in complete DMEM and grown to 50-60% confluency. A polyethyleneimine (PEI) stock solution was prepared (1 mg/mL, pH 7.4) and filter sterilized. Serum-free DMEM (600 μL) was mixed gently with 2.6 μg DNA and 20 μL of sterile PEI (1 mg/mL, pH 7.4) in a sterile microfuge tube. Mixtures were incubated for 30 min at 25° C. The mixture was then added drop-wise to each 10 cm^2 plate, rocked back and forth to mix, and placed back in the incubator. Cell pellets were harvested after two full days of growth, snap-frozen in liquid N2, and stored at −80° C. until use. Recombinant proteins were produced by transient transfection in SILAC HEK293T cells using the procedure described above, except that cells were plated at a concentration of 1×10^6 cells per 10 cm^2 plate and grown to ˜70% confluency prior to introducing transfection mixture.
Proteomes were diluted to 2 mg/ml in kinase buffer. The light and heavy proteomes (0.5 mg, 250 μL total reaction volume) were pre-treated with vehicle or compound, respectively (5 μL, DMSO (light) or 50× stock in DMSO (heavy)), mixed gently, and incubated at 25° C. for 30 min. […] After incubation, matched light and heavy proteomes were transferred and mixed in a 1:1 ratio in a two-dram vial containing 4:1:3 MeOH/CHCl3/H2O (2 mL MeOH, 500 AL CHCl3, 1.5 mL H2O) for extraction of proteins to remove excess probe, quickly vortexed, and centrifuged at 1,400×g for 3 min to pellet protein. Organic and aqueous layers were removed using a Pasteur pipette, and the protein pellet was transferred to a screw-top tube in 600 μL MeOH. A second extraction was performed by adding CHCl3 (150 μL) and H2O (600 μL) to each sample, vortexed, and centrifuged at 1,400×g for 3 min to pellet protein. Organic and aqueous layers were removed by pipetting. MeOH added to pellet (600 μL) and pellets were re-suspended by sonication (3×1 sec pulse, 20% amplitude) for a final extraction. Samples were then centrifuged at 17,000×g for 5 min to pellet protein and MeOH was removed by pipetting. The pellets were re-suspended in 10 M urea/25 mM ammonium bicarbonate ([…]), brought to a final volume of 1 mL with 25 mM ammonium bicarbonate, reduced with 10 mM DTT for 15 min at 65° C. allowed to cool, and then alkylated with 40 mM iodoacetamide for 30 min at 25° C. in the dark. To desalt the samples, each was transferred to a two-dram glass vial, and to the vial 4:1:2 MeOH/CHCl3/H2O (2 mL MeOH, 500 AL CHCl3, 1 mL H2O) was added. The vials were vortexed quickly, spun at 1.400×g for 3 min to pellet protein, and aqueous and organic layers were removed using a Pasteur pipette. The resulting protein pellet was transferred to a screw-top tube in 600 μL MeOH, and then CHCl3 (150 μL) and HO (600 μL) were added to extract protein a second time. The samples were vortexed quickly, centrifuged at 1,400×g to pellet protein, and the aqueous and organic layers were removed by pipetting. Resulting protein pellet was suspended in MeOH (600 μL) via sonication (3×1 sec pulse, 20% amplitude), centrifuged at 17,000×g for 5 min to pellet protein, and MeOH removed by pipetting. […]

SILAC ratio, DGKQ C1 probe-modified peptide | SILAC ratio, DGKQ DAGKa probe-modified peptide | SILAC ratio, DGKQ DAGKc probe-modified peptide | SMILES
0.9 | 1.1 | 1.2 | O=C(c1ccc(F)cc1)C1CCN(CCn2c(=O)[nH]c3ccccc3c2=O)CC1 [Ketanserin]
0.7 | 1.2 | 0.9 | Fc1ccc(C(=C2CCNCC2)c2ccc(F)cc2)cc1 [RF001, 4-(Bis(4-fluorophenyl)methylene) piperidine]

SMILES | SILAC ratio, DGKQ C1 probe-modified peptide | SILAC ratio, DGKQ DAGKa probe-modified peptide | SILAC ratio, DGKQ DAGKc probe-modified peptide
Cc1nc2sccn2c(=O)c1CCN1CCC(=C(c2ccc(F)cc2)c2ccc(F)cc2)CC1 [Ritanserin] | 1.3 | 1.4 | 1.1
